From the NIST ThermoML archive (doi:10.1016/j.jct.2017.08.004)

Assay: molar heat capacity at constant pressure
Details: 101.33 kPa, Crystal

OC[C@@H](O)[C@@H](O)[C@H](O)[C@H](O)CO [D-mannitol]
molar heat capacity at constant pressure [J/K/mol]
Details	Small sample (50 mg) DSC	relaxation calorimetry
1 K	–	0.001199
1.923 K	–	0.006707
2 K	–	0.007583
2.139 K	–	0.009192
2.373 K	–	0.01256
2.634 K	–	0.01689
2.928 K	–	0.02301
3 K	–	0.02469
3.249 K	–	0.03152
3.602 K	–	0.04303
3.997 K	–	0.05809
4 K	–	0.05872
4.435 K	–	0.07904
4.92 K	–	0.1115
5 K	–	0.1167
5.459 K	–	0.1535
6 K	–	0.2067
6.057 K	–	0.2121
6.719 K	–	0.2951
7 K	–	0.3376
7.454 K	–	0.4159
8 K	–	0.5187
8.269 K	–	0.5829
9 K	–	0.7614
9.171 K	–	0.8041
10 K	–	1.071
10.2 K	–	1.131
11.29 K	–	1.565
12.52 K	–	2.163
13.89 K	–	2.945
15 K	–	3.67
15.42 K	–	3.976
17.11 K	–	5.278
18.99 K	–	6.927
20 K	–	7.832
21.08 K	–	8.9
23.4 K	–	11.29
25 K	–	13.01
25.98 K	–	14.06
28.84 K	–	17.28
30 K	–	18.66
32.02 K	–	20.91
35 K	–	24.4
35.55 K	–	25.01
39.45 K	–	29.53
40 K	–	30.07
43.79 K	–	34.41
45 K	–	35.64
48.59 K	–	39.53
50 K	–	41.11
53.92 K	–	45.29
55 K	–	46.48
59.84 K	–	51.45
60 K	–	51.67
65 K	–	56.63
66.4 K	–	58.03
70 K	–	61.48
73.71 K	–	64.84
75 K	–	66.19
80 K	–	70.77
81.8 K	–	72.99
85 K	–	75.22
90 K	–	79.54
90.8 K	–	80.09
95 K	–	83.75
100 K	–	87.87
100.74 K	–	87.67
110 K	–	95.83
110.88 K	–	96.15
120 K	–	103.5
120.83 K	–	104.57
130 K	–	110.93
130.91 K	–	112.04
140 K	–	118.19
140.97 K	–	119.24
150 K	–	125.32
151.12 K	–	126.15
160 K	–	132.36
161.2 K	–	133.18
170 K	–	139.33
171.28 K	–	140.05
180 K	–	146.27
181.37 K	–	147.35
188.15 K	143.51	–
189.15 K	144.52	–
190 K	–	153.2
190.15 K	145.73	–
191.15 K	146.73	–
191.44 K	–	154.23
192.15 K	147.51	–
193.15 K	148.54	–
194.15 K	149.99	–
195.15 K	151.06	–
196.15 K	152.24	–
197.15 K	153.48	–
198.15 K	154.54	–
199.15 K	155.53	–
200 K	–	160.12
200.15 K	156.46	–
201.15 K	157.4	–
201.56 K	–	160.73
202.15 K	158.14	–
203.15 K	158.99	–
204.15 K	159.96	–
205.15 K	160.76	–
206.15 K	161.64	–
207.15 K	162.47	–
208.15 K	163.24	–
209.15 K	163.78	–
210 K	–	167.07
210.15 K	164.68	–
211.15 K	165.46	–
211.67 K	–	167.61
212.15 K	166.24	–
213.15 K	167.09	–
214.15 K	167.92	–
215.15 K	168.49	–
216.15 K	169.55	–
217.15 K	170.24	–
218.15 K	170.94	–
219.15 K	171.88	–
220 K	–	174.05
220.15 K	172.81	–
221.15 K	173.38	–
221.78 K	–	175.44
222.15 K	174.15	–
223.15 K	174.98	–
224.15 K	175.72	–
225.15 K	176.52	–
226.15 K	177.3	–
227.15 K	177.96	–
228.15 K	178.66	–
229.15 K	179.32	–
230 K	–	181.07
230.15 K	179.98	–
231.15 K	180.68	–
231.88 K	–	182.4
232.15 K	181.3	–
233.15 K	182.34	–
234.15 K	182.94	–
235.15 K	183.75	–
236.15 K	184.67	–
237.15 K	185.22	–
238.15 K	186	–
239.15 K	186.79	–
240 K	–	188.14
240.15 K	187.46	–
241.15 K	188.04	–
241.89 K	–	189.63
242.15 K	188.69	–
243.15 K	189.39	–
244.15 K	190.16	–
245.15 K	190.77	–
246.15 K	191.37	–
247.15 K	192.19	–
248.15 K	192.92	–
249.15 K	193.73	–
250 K	–	195.26
250.15 K	194.6	–
251.15 K	195.14	–
252.03 K	–	197.13
252.15 K	195.91	–
253.15 K	196.71	–
254.15 K	197.56	–
255.15 K	198.46	–
256.15 K	199.17	–
257.15 K	199.9	–
258.15 K	200.87	–
259.15 K	201.58	–
260 K	–	202.45
260.15 K	202.15	–
261.15 K	203.09	–
262.09 K	–	203.85
262.15 K	203.84	–
263.15 K	204.4	–
264.15 K	205.1	–
265.15 K	205.89	–
266.15 K	206.4	–
267.15 K	207.11	–
268.15 K	207.89	–
269.15 K	208.64	–
270 K	–	209.71
270.15 K	209.5	–
271.15 K	210.37	–
272.12 K	–	211.38
272.15 K	211.22	–
273.15 K	211.63	212.01
274.15 K	212.27	–
275.15 K	213.11	–
276.15 K	213.85	–
277.15 K	214.68	–
278.15 K	215.33	–
279.15 K	216.09	–
280 K	–	217.04
280.15 K	216.75	–
281.15 K	217.54	–
282.15 K	218.34	–
282.18 K	–	219
283.15 K	219.11	–
284.15 K	219.88	–
285.15 K	220.37	–
286.15 K	221.11	–
287.15 K	221.79	–
288.15 K	222.53	–
